ChEMBL document CHEMBL4152226, “Novel Mannich bases of α- and γ-mangostins: Synthesis and evaluation of antioxidant and membrane-protective activity” (Eur J Med Chem, 2018)
The source made the active and inactive calls. The rule behind the calls is not given here.

How the values were obtained:
[1] = Antioxidant activity assessed as DPPH radical scavenging activity at 100 uM incubated in dark for 30 mins relative to control; type: functional
Erythrocyte [2] = assay: Antioxidant activity against H2O2-induced oxidative stress in mouse RBC assessed as inhibition of LPO accumulation at 10 uM pretreated for 30 mins followed by H2O2 addition and measured after 4 hrs by TBARS assay relative to control; type: functional
Erythrocyte [3] = assay: Protection against H2O2-induced oxidative stress in mouse RBC assessed as inhibition of hemolysis at 1 uM pretreated for 30 mins followed by H2O2 addition and measured after 5 hrs by malondialdehyde indicator based assay relative to control; type: functional
Erythrocyte [4] = assay: Protection against H2O2-induced oxidative stress in mouse RBC assessed as inhibition of hemolysis at 10 uM pretreated for 30 mins followed by H2O2 addition and measured after 5 hrs by malondialdehyde indicator based assay relative to control; type: functional
[5] = Antioxidant activity assessed as DPPH radical scavenging activity at 10 to 100 uM incubated in dark for 30 mins; type: functional
Erythrocyte [6] = assay: Hemolytic activity against mouse RBC at 30 uM measured after 5 hrs by malondialdehyde indicator based assay; type: ADME, cell-based
Erythrocyte [7] = assay: Antioxidant activity against H2O2-induced oxidative stress in mouse RBC assessed as inhibition of LPO accumulation at 1 uM pretreated for 30 mins followed by H2O2 addition and measured after 4 hrs by TBARS assay relative to control; type: functional
Erythrocyte [8] = assay: Antioxidant activity against H2O2-induced oxidative stress in mouse RBC assessed as inhibition of LPO accumulation at 0.05 uM pretreated for 30 mins followed by H2O2 addition and measured after 4 hrs by TBARS assay relative to control; type: functional
Erythrocyte [9] = assay: Protection against H2O2-induced oxidative stress in mouse RBC assessed as inhibition of hemolysis at 0.05 uM pretreated for 30 mins followed by H2O2 addition and measured after 5 hrs by malondialdehyde indicator based assay relative to control; type: functional
[10] = Metal chelating activity assessed as compound-Fe2+ complex formation at 10 uM after 10 mins by FerrozineTM iron reagent based assay
[11] = Hemolytic activity against mouse RBC assessed as hemolysis measured after 5 hrs by malondialdehyde indicator based assay relative to control; type: ADME, cell-based, Erythrocyte; conditions: mouse red blood cells (erythrocytes), read-out: Activity

SMILES	Activity [1] [%]	inhibition at 10 µM (Erythrocyte [2]) [%]	inhibition at 1 µM (Erythrocyte [3]) [%]	inhibition at 10 µM (Erythrocyte [4]) [%]	Activity [5]	Activity (Erythrocyte [6])	inhibition at 1 µM (Erythrocyte [7]) [%]	inhibition at 0.05 µM (Erythrocyte [8]) [%]	inhibition at 0.05 µM (Erythrocyte [9]) [%]	Activity [10]	hemolysis at 5 h [11] [%]
COc1c(O)cc2oc3c(CN4CCOCC4)c(O)c(CC=C(C)C)c(O)c3c(=O)c2c1CC=C(C)C	13.1 to 16										
COc1c(O)c(CN2CCCCCC2)c2oc3c(CN4CCCCCC4)c(O)c(CC=C(C)C)c(O)c3c(=O)c2c1CC=C(C)C		54.1	35	19	Active	Non-Toxic	34.8				
CC(C)=CCc1c(O)c(CN2CCOCC2)c2oc3c(CN4CCOCC4)c(O)c(O)c(CC=C(C)C)c3c(=O)c2c1O		68.8	6.9		Active	Non-Toxic		78.5	79.6	Active	
COc1c(O)cc2oc3c(CN4CCCCC4)c(O)c(CC=C(C)C)c(O)c3c(=O)c2c1CC=C(C)C	13.1 to 16										
COc1c(O)c(CN2CCOCC2)c2oc3c(CN4CCOCC4)c(O)c(CC=C(C)C)c(O)c3c(=O)c2c1CC=C(C)C		57.4	75.6	22	Active	Non-Toxic	76.1				
CC(C)=CCc1c(O)c(CN2CCCCCC2)c2oc3c(CN4CCCCCC4)c(O)c(O)c(CC=C(C)C)c3c(=O)c2c1O		71.5	9		Active	Non-Toxic		69	74.3	Active	
COc1c(O)cc2oc3c(CN4CCCC4)c(O)c(CC=C(C)C)c(O)c3c(=O)c2c1CC=C(C)C		68.2	29.2	17.5	Active	Non-Toxic	56.4			Active	
COc1c(O)c(CN(C)C)c2oc3c(CN(C)C)c(O)c(CC=C(C)C)c(O)c3c(=O)c2c1CC=C(C)C		58.2	41	66.3	Active	Toxic	56.1				
COc1c(O)cc2oc3cc(O)c(CC=C(C)C)c(O)c3c(=O)c2c1CC=C(C)C [MANGOSTIN]		59.8 to 67	60.2 to 60.9	44.4 to 46.3	Active	Non-Toxic	54.2 to 66.9				
COc1c(O)c(CN2CCCCCC2)c2oc3c(CN4CCOCC4)c(O)c(CC=C(C)C)c(O)c3c(=O)c2c1CC=C(C)C		33.6	37.5	17.7	Active	Non-Toxic	56.1				
CC(C)=CCc1c(O)cc2oc3cc(O)c(O)c(CC=C(C)C)c3c(=O)c2c1O		68.1	15.1		Active	Non-Toxic		72.8	85.9		
COc1c(O)cc2oc3c(CN(C)C)c(O)c(CC=C(C)C)c(O)c3c(=O)c2c1CC=C(C)C	13.1 to 16										63.1
COc1c(O)cc2oc3c(CN4CCCCCC4)c(O)c(CC=C(C)C)c(O)c3c(=O)c2c1CC=C(C)C		48.9	27.6	10.8	Active	Non-Toxic	51.2			Active	
CC(C)=CCc1c(O)c(CN(C)C)c2oc3c(CN(C)C)c(O)c(O)c(CC=C(C)C)c3c(=O)c2c1O		75.7	15.3		Active	Non-Toxic		67.7	78	Active	
CCCCNCc1c(O)c(CC=C(C)C)c(O)c2c(=O)c3c(CC=C(C)C)c(OC)c(O)c(CN(C)C)c3oc12		61.5	36.8	50	Active	Non-Toxic	53.5				
CCCCNCc1c(O)c(CC=C(C)C)c(O)c2c(=O)c3c(CC=C(C)C)c(OC)c(O)cc3oc12		70.5	46.4	31.9	Active	Non-Toxic	60.5				
